Source: patent publication US10717966B2, “Stem cell-derived hepatocytes in co-culture and uses thereof” (Colorado State University Research Foundation, priority 2014, dated 2020)
Entries after “also recorded” stand apart in the source; their conditions may differ. Counter-ions that a name gives are not always drawn. Like-named read-outs stand apart in the source and are kept apart here.

Columns and labels:
[1] = cited from earlier work; for DILI Cat (DILI category): human, in vivo; for DILI Sev (DILI severity score from the LTKB of the FDA): negative number: withdrawn from the market, higher positive numbers, greater DILI concern
[2] = test system: iMPCCs (iHep micropatterned co-cultures); conditions: human
[3] = test system: iCCs (confluent monolayer cultures of iHeps); conditions: human; for Toxicity call in iCCs: 6 days
[4] = test system: primary hepatocyte sandwich culture; conditions: human, cited from earlier work
[5] = test system: primary hepatocytes (HUM4011, Triangle Research Labs); conditions: human
CYP1A2 = CYP1A2 induction in iMPCCs (7-ethoxyresorufin O-dealkylation); assay type: cell-based, human
[6] = total human plasma concentration; cited from earlier work
iMPCCs [7] = experiment: 8-day drug toxicity study in iMPCCs (albumin and urea); conditions: 8 days, multiple doses
[8] = test system: iMPCCs (iHep micropatterned co-cultures); experiment: Drug toxicity screening in iMPCCs (albumin, ATP, urea; binary decision and TC50); conditions: interpolated concentration at which activity decreases by 50% of DMSO-only controls
[9] = test system: primary human hepatocytes in MPCCs; conditions: cited from earlier work
iMPCCs [10] = experiment: Drug-drug interaction: acetaminophen with BSO in iMPCCs; assay type: cell-based, human; conditions: APAP 25·Cmax and 50·Cmax, BSO 200 μM
CYP2C9 and CYP3A4 [11] = conditions: human
CYP2C9 and CYP3A4 [12] = experiment: Drug-mediated CYP enzyme induction in iCCs; conditions: rifampicin 25 μM, phenobarbital 1 mM, 4 days
Wherever DILI Cat (DILI category) is given: key: P1: DILI type 1, dose dependent (toxic); P2: DILI type 2, idiosyncratic (toxic); N1: not known to cause liver injury (nontoxic); N2: sporadic cases (<10) of liver injury reported but generally considered safe drug to use by doctors (nontoxic); O1: hepatotoxic in animals untested in humans (toxic); O2: elevated liver enzymes observed in humans but does not lead to frank liver toxicity (nontoxic).

## CCCCCCCCCCCCCCCC(=O)OC[C@@H](NC(=O)C(Cl)Cl)[C@H](O)c1ccc([N+](=O)[O-])cc1 [Chloramphenicol palmitate]
[1]
  DILI Cat (DILI category): P2

## CCN(CC)C(=O)/C(C#N)=C/c1cc(O)c(O)c([N+](=O)[O-])c1 [entacapone]
[2]
  Albumin secretions, time- and dose-dependent toxicity: time- and dose-dependent toxicities

## Cc1cccc(Nc2ccccc2C(=O)O)c1C [Mefenamic acid]
[2]; 6 days
  TC50 in iMPCCs, ATP: 2551.9 µM
  TC50 in iMPCCs, Urea: 572.2 µM
[1]
  DILI Cat (DILI category): P2

## O=C1CC2(CCCC2)CC(=O)N1CCCCN1CCN(c2ncccn2)CC1 [Buspirone]
[1]
  DILI Cat (DILI category): N1

## O=C(O)c1cn(C2CC2)c2cc(N3CCNCC3)c(F)cc2c1=O [Ciprofloxacin HCl]
[2]; 6 days
  TC50 in iMPCCs, ATP: 804.2 µM

## CCOc1ccc(NC(C)=O)cc1 [Phenacetin]
[3]
  Toxicity call in iCCs: not identified as toxic

## CCN(CC)CCOc1ccc(C(=C(Cl)c2ccccc2)c2ccccc2)cc1 [Clomiphene citrate]
[1]
  DILI Cat (DILI category): P2

## CNCCc1ccccn1.Cl.Cl [Betahistine 2HCl]
[1]
  DILI Cat (DILI category): P2

## O=P1(N(CCCl)CCCl)NCCCO1 (centres unmarked) [Cyclophosphamide]
[4]; primary hepatocyte sandwich culture
  Model predictions Sand (binary decision in sandwich cultures): −

## O=c1n(CCCN2CCN(c3cccc(Cl)c3)CC2)nc2ccccn12 [Trazodone HCl]
[2]; 6 days
  TC50 in iMPCCs, ATP: 351.5 µM
[1]
  DILI Cat (DILI category): P2

## Nc1ccc(S(=O)(=O)c2ccc(N)cc2)cc1 [Dapsone]
[5]
  Toxicity call in another donor of primary hepatocytes: false negative
[1]
  DILI Cat (DILI category): P1

## COc1ccc2[nH]c([S+]([O-])Cc3ncc(C)c(OC)c3C)nc2c1 (centres unmarked) [omeprazole]
CYP1A2
  CYP1A2 fold induction in iMPCCs as % of values in PHH-MPCCs: ~70%

## NC(=O)c1cnccn1 [Pyrazinamide]
[3]
  Toxicity call in iCCs: non-toxic
[2]; 6 days
  Toxicity call in iMPCCs / iHeps: toxic
[1]
  DILI Cat (DILI category): P2

## Cc1ccc(C(=O)c2cc(O)c(O)c([N+](=O)[O-])c2)cc1 [tolcapone]
[2]
  Albumin secretions, time- and dose-dependent toxicity: time- and dose-dependent toxicities

## NC(=O)NO [Hydroxyurea]
[2]; 6 days
  TC50 in iMPCCs, ATP: 49358.3 µM

## CN1C(C(=O)Nc2ccccn2)=C(O)c2ccccc2S1(=O)=O [Piroxicam]
[2]; 6 days
  Toxicity call in iMPCCs / iHeps: toxic
[1]
  DILI Cat (DILI category): P2

## C=C[C@H]1C[N@@]2CC[C@H]1C[C@H]2[C@H](O)c1ccnc2ccc(OC)cc12 [Quinine]
[2]; 6 days
  TC50 in iMPCCs, ATP: 182.2 µM
[1]
  DILI Cat (DILI category): P2

## CNCCC(Oc1ccc(C(F)(F)F)cc1)c1ccccc1 (centres unmarked) [Fluoxetine]
[6]
  Cmax: 49 nM
[1]
  DILI Cat (DILI category): N2
  DILI Sev (DILI severity score from the LTKB of the FDA): 3

## CNCCC=C1c2ccccc2CCc2ccccc21 [Nortriptyline HCl]
[1]
  DILI Cat (DILI category): P2

## COc1ccc2c(c1)[C@]13CCCC[C@@H]1[C@H](C2)N(C)CC3 [Dextromethorphan HBr]
iMPCCs [7]
  Albumin and urea production after exposure: minimally affected
[4]
  Model predictions Sand (binary decision in sandwich cultures): −
[3]
  Model predictions ICC (binary decision of toxicity): −

## C[C@H](CS)C(=O)N1CCC[C@H]1C(=O)O [Captopril]
[1]
  DILI Cat (DILI category): P2
  DILI Sev (DILI severity score from the LTKB of the FDA): 7

## CCc1oc2ccccc2c1C(=O)c1cc(Br)c(O)c(Br)c1 [Benzbromarone]
[1]
  DILI Cat (DILI category): P1

## CC(=O)[C@H]1CC[C@H]2[C@@H]3CCC4=CC(=O)CC[C@]4(C)[C@H]3CC[C@]12C [Progesterone]
[1]
  DILI Cat (DILI category): P2

## C#C[C@]1(O)CC[C@H]2[C@@H]3CCC4=Cc5oncc5C[C@]4(C)[C@H]3CC[C@@]21C [Danazol]
[1]
  DILI Cat (DILI category): P1
  DILI Sev (DILI severity score from the LTKB of the FDA): 8

## NNC(=O)c1ccncc1 [Isoniazid]
[8]
  TC50 in iMPCCs, Albumin: 6681.1 µM
[3]
  Toxicity call in iCCs: non-toxic
[2]; 6 days
  Toxicity call in iMPCCs / iHeps: toxic
[1]
  DILI Cat (DILI category): P1

## CCCCC1C(=O)N(c2ccccc2)N(c2ccccc2)C1=O [Phenylbutazone]
[9]
  TC50 in MPCCs, ATP: 7586.7 µM
[1]
  DILI Cat (DILI category): P2

## CN(CCOc1ccc(CC2SC(=O)NC2=O)cc1)c1ccccn1 (centres unmarked) [Rosiglitazone]
[1]
  DILI Cat (DILI category): N2

## CN(C)CCCN1c2ccccc2CCc2ccccc21 [Imipramine HCl]
[1]
  DILI Cat (DILI category): P2

## Cc1c(C)c2c(c(C)c1O)CCC(C)(COc1ccc(CC3SC(=O)NC3=O)cc1)O2 (centres unmarked) [Troglitazone]
[1]
  DILI Cat (DILI category): P1

## C[C@@H]1C[C@H]2[C@@H]3CCC4=CC(=O)C=C[C@]4(C)[C@@]3(F)[C@@H](O)C[C@]2(C)[C@@]1(O)C(=O)CO [Dexamethasone]
[2]; 6 days
  Model predictions iMPCC (binary decision of toxicity): −
[1]
  DILI Cat (DILI category): N1

## C[C@]12CC[C@@H]3c4ccc(O)cc4CC[C@H]3[C@@H]1CCC2=O [Estrone]
[1]
  DILI Cat (DILI category): P2

## C#CC1(O)CC[C@H]2[C@@H]3CCC4=CC(=O)CC[C@@H]4[C@H]3CC[C@@]21CC (mixture of isomers) [Norgestrel]
[1]
  DILI Cat (DILI category): P2

## CC(C(=O)O)c1ccc(-c2ccccc2)c(F)c1 (centres unmarked) [Flurbiprofen]
[2]; 6 days
  Comparison of urea TC50 values, iHeps vs primary hepatocytes: higher TC50 in iHeps
[1]
  DILI Cat (DILI category): P2

## CC(=O)Nc1ccc(O)cc1 [Acetaminophen]
iMPCCs [10]
  Toxicity of APAP when combined with BSO: substantial increase in toxicity
[1]
  DILI Cat (DILI category): P2

## CC(=O)O[C@]1(C(C)=O)CC[C@H]2[C@@H]3C=C(Cl)C4=CC(=O)[C@@H]5C[C@@H]5[C@]4(C)[C@H]3CC[C@@]21C [Cyproterone acetate]
[3]
  Toxicity call in iCCs: non-toxic
[2]; 6 days
  Toxicity call in iMPCCs / iHeps: toxic
[1]
  DILI Cat (DILI category): O1

## CC(=O)Nc1nnc(S(N)(=O)=O)s1 [Acetazolamide]
[5]
  Toxicity call in another donor of primary hepatocytes: false negative

## CC(=O)CC(c1ccccc1)c1c(O)c2ccccc2oc1=O (centres unmarked) [Warfarin]
[4]
  Model predictions Sand (binary decision in sandwich cultures): −
[3]
  Model predictions ICC (binary decision of toxicity): −

## CC(=O)Oc1ccccc1C(=O)O [Aspirin]
[2]; 6 days
  Model predictions iMPCC (binary decision of toxicity): −
[1]
  DILI Cat (DILI category): O2

## O=C(O)Cc1ccccc1Nc1c(Cl)cccc1Cl [Diclofenac]
[9]
  TC50 in MPCCs, Urea: 208.2 µM
[1]
  DILI Cat (DILI category): P2
  DILI Sev (DILI severity score from the LTKB of the FDA): 7

## O=C(O)/C=C\C(=O)O [Maleic acid]
[5]
  Toxicity call in another donor of primary hepatocytes: borderline positive

## CCC1(c2ccccc2)C(=O)NC(=O)NC1=O [phenobarbital]
CYP450 (3A4, 2C9)
  Induction of CYP450 (3A4, 2C9) transcripts and functions in PHH-MPCCs: induction
CYP2C9 and CYP3A4 [11]
  Fold induction of CYP450 transcripts in iMPCCs relative to PHH-MPCCs: 60-130%
  Induction in CYP450 functions in iMPCCs relative to PHH-MPCCs: 44-79%
CYP2C9 and CYP3A4 [12]
  CYP induction response (functional activity) in iCCs: induced functional activity; also recorded: severely blunted
